Measured values reported in patent US8552065B2, “Biarylamide derivative and compositions containing the derivative as an active ingredient” (Catholic University Industry Academy Cooperation Foundation, priority 2010, dated 2013).

Test system: TRP-2 (Tyrosinase related protein-2, Dopachrom tautomerase)
Experiment: TRP-2 expression in melan-a cells by western blotting (Example 4)
Format: cell-based, mouse
Settings: 50 uM, treated daily for 3 days, FIG. 2A
Description: In order to examine the effects of A3/B5 on TRP-2 expression, mouse melanocytes (melan-a) were cultured in RPMI1640 medium including fetal bovine serum (FBS) 10% and 200 nM of phorbol 12-myristate 13-acetate (TPA) for 24 hours, and treated with A3/B5 at a concentration of 50 uM (per day for 3 days). In order to determine the expression level of TRP-2 over 3 days, each test group was lysed in RIPA buffer solution containing 2 mM EDTA, 137 mM NaCl, 20 mM Tris-HCl (pH 8.0), 1 mM sodium vanadate, 10 mM NaF, 1 mM PMSF (phenylmethanesulfonyl fluoride), 1% NP-40, 10% glycerol and a protease inhibitor cocktail, and protein was separated by SDS-PAGE electrophoresis using 10% acrylamide gel. This was transferred to a nylon membrane, and TRP-2 protein was analyzed by anti TRP-2 antibody (santacuz, US) and anti-Rabbit IgG horse Radish Peroxidase (HRP) conjugation antibody (1;10000, zymed) as a secondary antibody. This was detected by Chemiluminescence reagent kit (ECL, Amersham, US) and then imaged using RAS 3000 Imaging system (FUJI film, Japan) as an image analyzer. Further, in a case where the cells were treated with A3B5 once on the first day of 3 consecutive days, the expression level of TRP-2 over 3 days was also analyzed in the same manner as described above.

How did the “expression level of TRP-2 protein as compared to non-treated group” value turn out when `COc1cccc(C(=O)Nc2cc(C)cc(C)c2)c1` [A3/B5, N-(3,5-dimethylphenyl)-3-methoxybenzamide] was run?
Its value is “significant reduction”.

Same assay, conditions: 50 uM, treated only once on the first day of 3 consecutive days, FIG. 2B

Which “expression level of TRP-2 protein as compared to non-treated group” value does the source give for `COc1cccc(C(=O)Nc2cc(C)cc(C)c2)c1` [A3/B5, N-(3,5-dimethylphenyl)-3-methoxybenzamide] here?
Its value is “significant reduction”.

Test system: Melan-a cells, that is, mouse melanocytes
Experiment: Melanin production inhibition by A3/B5 in melan-a cells, with cell viability (Example 3)
Format: cell-based
Settings: A3/B5 treatment per day for 3 days, final concentration 1, 10, and 25 (unit not given), FIG. 1A
Description: (§1) In order to examine the effect of A3/B5 on melanin inhibition, the degree of melanin production was analyzed using melan-a cells, that is, mouse melanocytes and human normal melanocytes. Melanocytes were inoculated onto a 24-well culture plate (10^5 cells) and cultured in RPMI1640 medium including fetal bovine serum (FBS) 10% and 200 nM of phorbol 12-myristate 13-acetate (TPA) for 24 hours. Then, in each well, 990 μl of RPMI1640 medium including FBS 10% and 200 nM TPA was treated with
(§2) 100, 1000, and 2500 of A3/B5 (10 μl per day for 3 days) (final concentration 1, 10, and 25). The last day of treatment, the cells were washed with Phosphate buffered saline (PBS) three times, lysed with 1 ml of 1M sodium hydroxide (NaOH) solution, and measured using ELISA Leader at absorbance of 400 nm. Additionally, in order to determine if the inhibition of melanin production is caused by apoptosis, cell viability was examined under the same condition as described above. For this, The last day of treatment, the cells were washed with phosphate buffered saline (PBS) three times, and the cells in each well were stained with 200 μl of Crystal Violet (0.1%, EtOH 10%, PBS 89.9%) for 5 minutes, washed with phosphate buffer, lysed in 1 ml of ethanol solution, and measured at absorbance of 590 nm. Further, this experiment was performed for human normal melanocytes in the same manner.

With `COc1cccc(C(=O)Nc2cc(C)cc(C)c2)c1` [A3/B5, N-(3,5-dimethylphenyl)-3-methoxybenzamide] as the compound, how does the “reduction in melanin production content of melanocytes with respect to cell viability, as compared to a non-treated group” value read?
The value was “about 40%”.

Test system: human normal melanocytes
Experiment: Melanin production inhibition by A3/B5 in human normal melanocytes (Example 3)
Format: cell-based
Settings: A3/B5 treatment per day for 3 days, final concentration 1, 10, and 25 (unit not given), FIG. 1B
Description: as §1, §2

With `COc1cccc(C(=O)Nc2cc(C)cc(C)c2)c1` [A3/B5, N-(3,5-dimethylphenyl)-3-methoxybenzamide] as the compound, how does the “reduction in melanin production content of melanocytes with respect to cell viability, as compared to a non-treated group” value read?
Its value is “about 20%”.

Test system: Melan-a cells, that is, mouse melanocytes
Experiment: Melanin production inhibition by biarylamide derivatives in melan-a cells (Example 2-2)
Format: cell-based
Settings: 30 mM derivative, 10 μl per day for 3 days, final concentration 300 μM, absorbance 400 nm
Description: Melan-a cells, that is, mouse melanocytes, were inoculated onto a 24-well culture plate (10^5 cells), and cultured in RPMI1640 medium including fetal bovine serum (FBS) 10% and 200 nM of phorbol 12-myristate 13-acetate (TPA) for 24 hours. Then, in each well, 990 μl of RPMI1640 medium including FBS 10% and 200 nM TPA was treated with 30 mM of the inventive biarylamide derivative (10 μl per day for 3 days) (final concentration 300). The last day of treatment, the cells were washed with Phosphate buffered saline (PBS) three times, lysed with 1 ml of 1M sodium hydroxide (NaOH) solution, and measured using ELISA Leader at absorbance of 400 nm.

Which “Reduction rate of melanin(%)” value does the source give for `COC(=O)c1ccccc1NC(=O)c1ccc(OC)cc1` [A12/B6, methyl 2-(4-methoxybenzamido)benzoate] here?
Its value is 39.0%.

For `COc1cccc(C(=O)Nc2cc(C)cc(C)c2)c1` [A3/B5, N-(3,5-dimethylphenyl)-3-methoxybenzamide], which “Reduction rate of melanin(%)” value is on record?
Its value is 48.7%.

`Cc1cccc(NC(=O)c2ccc(C#N)cc2)c1` [A1/B7, 4-cyano-N-m-tolylbenzamide] was tested. Which “Reduction rate of melanin(%)” value did it give?
Its value is 34.2%.

With `COc1ccccc1NC(=O)c1ccccc1C` [A4/B1, N-(2-Methoxyphenyl)-2-methylbenzamide] as the compound, how does the “Reduction rate of melanin(%)” value read?
Its value is 17.7%.

How did the “Reduction rate of melanin(%)” value turn out when `CCc1ccc(C(=O)Nc2cccc(C)c2)cc1` [A1/B4, 4-ethyl-N-m-tolylbenzamide] was run?
The value was 23.3%.

With `CCCCOc1ccc(NC(=O)c2ccccc2C)cc1` [A11/B1, N-(4-Butoxyphenyl)-2-methylbenzamide] as the compound, how does the “Reduction rate of melanin(%)” value read?
Its value is 8.9%.

Which “Reduction rate of melanin(%)” value does the source give for `CC(=O)c1ccc(NC(=O)c2ccc(C)cc2)cc1` [A10/B3, N-(4-acetylphenyl)-4-methylbenzamide] here?
The value was 10.4%.

For `Cc1cc(C)cc(NC(=O)c2ccc(C#N)cc2)c1` [A3/B7, 4-cyano-N-(3,5-dimethylphenyl)benzamide], which “Reduction rate of melanin(%)” value is on record?
The value was 50.6%.

Which “Reduction rate of melanin(%)” value does the source give for `Cc1ccc(NC(=O)c2ccc(C)cc2)cc1` [A2/B3, 4-methyl-N-p-tolylbenzamide] here?
Its value is 8.6%.

How did the “Reduction rate of melanin(%)” value turn out when `COc1ccc(OC)c(NC(=O)c2ccccc2C)c1` [A8/B1, N-(2,5-Dimethoxyphenyl)-2-methylbenzamide] was run?
The value was 45.5%.

For `COc1ccc(C(=O)Nc2cccc(C)c2)cc1` [A1/B6, 4-methoxy-N-m-tolylbenzamide], which “Reduction rate of melanin(%)” value is on record?
The value was 24.3%.

With `Cc1ccc(C(=O)Nc2cccc(C)c2)cc1` [A1/B3, 4-methyl-N-m-tolylbenzamide] as the compound, how does the “Reduction rate of melanin(%)” value read?
The value was 32.6%.

For `CCc1ccc(C(=O)Nc2ccccc2C(=O)OC)cc1` [A12/B4, methyl 2-(4-ethylbenzamido)benzoate], which “Reduction rate of melanin(%)” value is on record?
Its value is 9.4%.

With `COC(=O)c1ccccc1NC(=O)c1ccc(C)cc1` [A12/B3, methyl 2-(4-methylbenzamido)benzoate] as the compound, how does the “Reduction rate of melanin(%)” value read?
Its value is 9.4%.

How did the “Reduction rate of melanin(%)” value turn out when `COC(=O)c1ccc(NC(=O)c2cccc(C)c2)cc1` [A14/B2, Methyl 4-(3-methylbenzamido)benzoate] was run?
The value was 30.6%.

With `Cc1ccc(C(=O)Nc2cc(C)cc(C)c2)cc1` [A3/B3, N-(3,5-dimethylphenyl)-4-methylbenzamide] as the compound, how does the “Reduction rate of melanin(%)” value read?
Its value is 35.8%.

How did the “Reduction rate of melanin(%)” value turn out when `CCc1ccc(C(=O)Nc2cc(C)cc(C)c2)cc1` [A3/B4, N-(3,5-dimethylphenyl)-4-ethylbenzamide] was run?
Its value is 36.5%.

Test system: B16F10 mouse melanoma cell
Experiment: B16F10 melanoma cell proliferation in hairless mouse model (Example 6)
Format: in vivo
Settings: hairless mice; 100 μl of 1 mM A3/B5 injected into the cell region for 5 days; sectioned on 6th day; FIG. 4
Description: In order to examine the effect of A3/B5 on the inhibition of melanoma cell proliferation, into the back of 5 hairless mice, at both sides of subcutaneous tissues, 5×10^5 B16F10 cells (B16F10 mouse melanoma cell) were injected. Then, 48 hours later, into the region injected with the cells, 100 μl of A3/B5 diluted with phosphate buffer solution to a concentration of 1 mM, and 100 μl of phosphate buffer solution as a control, were injected for 5 days, respectively. On the 6th day, the injected cell region was sectioned and its size and weight were analyzed.

Which results are given for `COc1cccc(C(=O)Nc2cc(C)cc(C)c2)c1` [A3/B5, N-(3,5-dimethylphenyl)-3-methoxybenzamide]?
size of injected B16F10 cell region versus phosphate buffer control: smaller; weight of injected B16F10 cell region versus phosphate buffer control: smaller

Test system: A375 human melanoma cell lines
Experiment: A375 melanoma cell growth inhibition, BrdU cell proliferation assay (Example 5)
Format: cell-based
Settings: respective concentrations, 48 hours, absorbance 450 nm, FIG. 3
Description: A375 cells were inoculated onto a 96 well plate (3×10^3 cells), and cultured in DMEM containing fetal bovine serum (FBS) 10% for 16 hours, and then treated with A3/B5 at respective concentrations, and cultured for 48 hours. Then, by using BrdU cell proliferation assay kit (Roche, Germany), the degree of cell growth inhibition by A3/B5 was examined.

How did the “inhibition on growth of A375 melanoma cells” value turn out when `COc1cccc(C(=O)Nc2cc(C)cc(C)c2)c1` [A3/B5, N-(3,5-dimethylphenyl)-3-methoxybenzamide] was run?
Its value is “inhibition on growth of A375 melanoma cells was increased”.
